pIC50: −log10 of the molar value.
system: NCI-H1563; experiment: Antiproliferative activity against human NCI-H1563 cells assessed as inhibition of cell growth; type: functional, cell-based

Structure (SMILES) | pIC50
CC(=O)N1CCOc2c1ccc1ncnc(Nc3cccc(C(F)(F)F)c3)c21 | < 4.40
CCC(=O)N1CCOc2c1ccc1ncnc(Nc3cccc(C(F)(F)F)c3)c21 | < 4.40
CN1CCN(CCC(=O)N2CCOc3c2ccc2ncnc(Nc4cccc(Br)c4)c32)CC1 | 4.90
FC(F)(F)c1cccc(Nc2ncnc3ccc4c(c23)OCCN4)c1 | < 4.40
CN1CCN(CCC(=O)N2CCOc3c2ccc2ncnc(Nc4ccc(F)c(Cl)c4)c32)CC1 | 4.98
Brc1cccc(Nc2ncnc3ccc4c(c23)OCCN4)c1 | > 5.90
CN1CCN(CCC(=O)N2CCOc3c2ccc2ncnc(Nc4cccc(C(F)(F)F)c4)c32)CC1 | 4.67

Next, values leading:

pIC50 | Structure (SMILES)
> 5.90 | Fc1ccc(Nc2ncnc3ccc4c(c23)OCCN4)cc1Cl
< 4.40 | CC(=O)N1CCOc2c1ccc1ncnc(Nc3ccc(F)c(Cl)c3)c21
4.61 | CCC(=O)N1CCOc2c1ccc1ncnc(Nc3cccc(Br)c3)c21
< 4.40 | CC(=O)N1CCOc2c1ccc1ncnc(Nc3cccc(Br)c3)c21
< 4.40 | CCC(=O)N1CCOc2c1ccc1ncnc(Nc3ccc(F)c(Cl)c3)c21
5.09 | C#Cc1cccc(Nc2ncnc3cc(OCCOC)c(OCCOC)cc23)c1 [ERLOTINIB]

system: NCI-H1975; experiment: Antiproliferative activity against human NCI-H1975 cells harboring T790M mutation assessed as inhibition of cell growth; type: functional, cell-based

Structure (SMILES) | pIC50
CC(=O)N1CCOc2c1ccc1ncnc(Nc3cccc(C(F)(F)F)c3)c21 | < 4.40
CCC(=O)N1CCOc2c1ccc1ncnc(Nc3cccc(C(F)(F)F)c3)c21 | < 4.40
CN1CCN(CCC(=O)N2CCOc3c2ccc2ncnc(Nc4cccc(Br)c4)c32)CC1 | 5.38
FC(F)(F)c1cccc(Nc2ncnc3ccc4c(c23)OCCN4)c1 | 5.38
CN1CCN(CCC(=O)N2CCOc3c2ccc2ncnc(Nc4ccc(F)c(Cl)c4)c32)CC1 | 5.49
Brc1cccc(Nc2ncnc3ccc4c(c23)OCCN4)c1 | 4.81
CN1CCN(CCC(=O)N2CCOc3c2ccc2ncnc(Nc4cccc(C(F)(F)F)c4)c32)CC1 | 5.36

Further lines, results first:

pIC50 | Structure (SMILES)
5.80 | Fc1ccc(Nc2ncnc3ccc4c(c23)OCCN4)cc1Cl
< 4.40 | CC(=O)N1CCOc2c1ccc1ncnc(Nc3ccc(F)c(Cl)c3)c21
5.44 | CCC(=O)N1CCOc2c1ccc1ncnc(Nc3cccc(Br)c3)c21
< 4.40 | CC(=O)N1CCOc2c1ccc1ncnc(Nc3cccc(Br)c3)c21
< 4.40 | CCC(=O)N1CCOc2c1ccc1ncnc(Nc3ccc(F)c(Cl)c3)c21
5.33 | C#Cc1cccc(Nc2ncnc3cc(OCCOC)c(OCCOC)cc23)c1 [ERLOTINIB]

molecular target: Epidermal growth factor receptor (Homo sapiens, UniProt P00533); experiment: Inhibition of wild type EGFR (unknown origin) autophosphorylation by Kinase-Glo luminescent assay
Sequence (P00533 whole entry): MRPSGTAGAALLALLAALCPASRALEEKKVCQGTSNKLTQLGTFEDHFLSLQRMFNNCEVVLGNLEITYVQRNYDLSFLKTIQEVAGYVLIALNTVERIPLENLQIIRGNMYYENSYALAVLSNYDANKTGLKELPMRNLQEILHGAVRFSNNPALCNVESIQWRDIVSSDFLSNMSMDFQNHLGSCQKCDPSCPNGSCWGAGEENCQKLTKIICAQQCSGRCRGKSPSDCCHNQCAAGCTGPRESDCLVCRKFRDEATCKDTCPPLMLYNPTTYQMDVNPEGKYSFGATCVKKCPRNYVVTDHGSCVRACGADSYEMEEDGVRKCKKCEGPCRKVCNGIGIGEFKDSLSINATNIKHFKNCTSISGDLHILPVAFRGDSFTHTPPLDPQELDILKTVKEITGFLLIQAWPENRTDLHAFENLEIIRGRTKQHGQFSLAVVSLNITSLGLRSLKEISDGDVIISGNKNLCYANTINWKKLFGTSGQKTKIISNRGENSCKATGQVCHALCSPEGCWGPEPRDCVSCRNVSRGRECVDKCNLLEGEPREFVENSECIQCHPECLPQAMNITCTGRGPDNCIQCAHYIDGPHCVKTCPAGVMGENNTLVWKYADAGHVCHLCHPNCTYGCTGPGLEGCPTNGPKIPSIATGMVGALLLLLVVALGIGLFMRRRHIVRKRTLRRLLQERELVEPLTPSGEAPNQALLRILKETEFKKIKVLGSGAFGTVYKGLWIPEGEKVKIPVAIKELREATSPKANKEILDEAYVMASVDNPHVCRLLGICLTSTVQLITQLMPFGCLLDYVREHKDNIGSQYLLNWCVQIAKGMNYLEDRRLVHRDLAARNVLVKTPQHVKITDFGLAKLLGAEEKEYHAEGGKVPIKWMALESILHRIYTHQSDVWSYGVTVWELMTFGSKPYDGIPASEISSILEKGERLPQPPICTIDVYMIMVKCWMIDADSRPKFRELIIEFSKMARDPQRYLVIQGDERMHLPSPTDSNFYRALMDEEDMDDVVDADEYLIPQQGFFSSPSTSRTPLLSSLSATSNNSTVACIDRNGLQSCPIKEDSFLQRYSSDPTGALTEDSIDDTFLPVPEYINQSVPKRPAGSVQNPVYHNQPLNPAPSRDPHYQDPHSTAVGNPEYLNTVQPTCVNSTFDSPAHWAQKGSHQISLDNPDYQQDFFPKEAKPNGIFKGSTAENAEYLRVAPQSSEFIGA

Structure (SMILES) | pIC50
CC(=O)N1CCOc2c1ccc1ncnc(Nc3cccc(C(F)(F)F)c3)c21 | 6.27
CCC(=O)N1CCOc2c1ccc1ncnc(Nc3cccc(C(F)(F)F)c3)c21 | 6.08
CN1CCN(CCC(=O)N2CCOc3c2ccc2ncnc(Nc4cccc(Br)c4)c32)CC1 | 7.39
FC(F)(F)c1cccc(Nc2ncnc3ccc4c(c23)OCCN4)c1 | 6.03
CN1CCN(CCC(=O)N2CCOc3c2ccc2ncnc(Nc4ccc(F)c(Cl)c4)c32)CC1 | 7.59
Brc1cccc(Nc2ncnc3ccc4c(c23)OCCN4)c1 | 6.92
CN1CCN(CCC(=O)N2CCOc3c2ccc2ncnc(Nc4cccc(C(F)(F)F)c4)c32)CC1 | 6.83

The remaining lines, values ahead:

pIC50 | Structure (SMILES)
7.06 | Fc1ccc(Nc2ncnc3ccc4c(c23)OCCN4)cc1Cl
7.33 | CC(=O)N1CCOc2c1ccc1ncnc(Nc3ccc(F)c(Cl)c3)c21
7.15 | CCC(=O)N1CCOc2c1ccc1ncnc(Nc3cccc(Br)c3)c21
7.34 | CC(=O)N1CCOc2c1ccc1ncnc(Nc3cccc(Br)c3)c21
7.15 | CCC(=O)N1CCOc2c1ccc1ncnc(Nc3ccc(F)c(Cl)c3)c21
7.99 | COCCOc1cc2ncnc(Nc3cccc(Cl)c3)c2c2c1OC(COC)CO2 (stereo not given)

system: not listed separately; experiment: Cytotoxicity against human 16HBE14o- cells assessed as inhibition of cell growth by MTT assay; type: toxicity, cell-based

Structure (SMILES) | CC50 [nM]
Fc1ccc(Nc2ncnc3ccc4c(c23)OCCN4)cc1Cl | 130
CCC(=O)N1CCOc2c1ccc1ncnc(Nc3cccc(Br)c3)c21 | 1250
CC(=O)N1CCOc2c1ccc1ncnc(Nc3cccc(Br)c3)c21 | 1400
CN1CCN(CCC(=O)N2CCOc3c2ccc2ncnc(Nc4cccc(Br)c4)c32)CC1 | 1350
CN1CCN(CCC(=O)N2CCOc3c2ccc2ncnc(Nc4ccc(F)c(Cl)c4)c32)CC1 | 1240
C#Cc1cccc(Nc2ncnc3cc(OCCOC)c(OCCOC)cc23)c1 [ERLOTINIB] | 1320
